Assay results from ChEMBL document CHEMBL1201862, “PubChem BioAssay data set” (2004).
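1) Cells in 96-well plates. 2) Compound, 48 h, 5 concentrations. 3) Linear interpolation between surrounding doses. 4) Unreached endpoint = highest concentration. GI50 = concentration required for 50% inhibition of growth.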 Calls of active or inactive are those of the source. Cut-off read from the data, not from the text of the source: active = GI50 up to about 1.1 µM and inactive = higher.

Tests used:
Test in all cases: NCI tumour cell line growth inhibition, 48 h
[1] = test system: M14
[2] = test system: HCT-116
[3] = test system: 786-0
[4] = test system: SF-539
[5] = test system: MDA-N
[6] = test system: LOX IMVI
[7] = test system: NCI-H522
[8] = test system: IGROV-1
[9] = test system: MDA-MB-435
[10] = test system: SK-OV-3
[11] = test system: NCI-H226
[12] = test system: HCT-15
[13] = test system: SN12C
[14] = test system: SF-295
[15] = test system: Hs-578T
[16] = test system: K562
[17] = test system: HL-60
[18] = test system: SR
[19] = test system: A549
[20] = test system: OVCAR-3
[21] = test system: SK-MEL-5
[22] = test system: HOP-92
[23] = test system: DU-145
[24] = test system: UO-31
[25] = test system: SNB-75
[26] = test system: SF-268
[27] = test system: MCF7
[28] = test system: UACC-62
[29] = test system: NCI/ADR-RES
[30] = test system: HCC 2998
[31] = test system: A498
[32] = test system: RPMI-8226
[33] = test system: ACHN
[34] = test system: COLO 205
[35] = test system: CCRF-CEM
[36] = test system: OVCAR-5
[37] = test system: T47D
[38] = test system: HT-29
[39] = test system: NCI-H460
[40] = test system: KM12
[41] = test system: RXF 393
[42] = test system: SW-620
[43] = test system: TK-10
[44] = test system: CAKI-1
[45] = test system: HOP-62
[46] = test system: OVCAR-8
[47] = test system: EKVX
[48] = test system: MOLT-4
[49] = test system: NCI-H23
[50] = test system: UACC-257
[51] = test system: SK-MEL-28
[52] = test system: PC-3
[53] = test system: MDA-MB-231
[54] = test system: Malme-3M
[55] = test system: SK-MEL-2
[56] = test system: OVCAR-4
[57] = test system: SNB-19
[58] = test system: U-251

CC(C)C1CC=NN1C(=O)OC(C)(C)C (stereo unspecified)
GI50 [1]: > 100 µM (inactive)
GI50 [2]: > 100 µM (inactive)
GI50 [3]: > 100 µM (inactive)
GI50 [4]: > 100 µM (inactive)
GI50 [5]: > 100 µM (inactive)
GI50 [6]: > 100 µM (inactive)
GI50 [7]: > 100 µM (inactive)
GI50 [8]: > 100 µM (inactive)
GI50 [9]: > 100 µM (inactive)
GI50 [10]: > 100 µM (inactive)
GI50 [11]: > 100 µM (inactive)
GI50 [12]: > 100 µM
GI50 [13]: > 100 µM (inactive)
GI50 [14]: > 100 µM (inactive)
GI50 [15]: > 100 µM (inactive)
GI50 [16]: > 100 µM (inactive)
GI50 [17]: > 100 µM (inactive)
GI50 [18]: > 100 µM (inactive)
GI50 [19]: > 100 µM (inactive)
GI50 [20]: > 100 µM (inactive)
GI50 [21]: > 100 µM (inactive)
GI50 [22]: > 100 µM (inactive)
GI50 [23]: > 100 µM (inactive)
GI50 [24]: > 100 µM (inactive)
GI50 [25]: > 100 µM (inactive)
GI50 [26]: > 100 µM (inactive)
GI50 [27]: > 100 µM (inactive)
GI50 [28]: > 100 µM (inactive)
GI50 [29]: > 100 µM (inactive)
GI50 [30]: > 100 µM (inactive)
GI50 [31]: > 100 µM (inactive)
GI50 [32]: > 100 µM (inactive)
GI50 [33]: > 100 µM (inactive)
GI50 [34]: > 100 µM (inactive)
GI50 [35]: > 100 µM (inactive)
GI50 [36]: > 100 µM (inactive)
GI50 [37]: > 100 µM (inactive)
GI50 [38]: > 100 µM (inactive)
GI50 [39]: > 100 µM (inactive)
GI50 [40]: > 100 µM (inactive)
GI50 [41]: > 100 µM (inactive)
GI50 [42]: > 100 µM (inactive)
GI50 [43]: > 100 µM (inactive)
GI50 [44]: > 100 µM (inactive)
GI50 [45]: > 100 µM (inactive)
GI50 [46]: > 100 µM (inactive)
GI50 [47]: > 100 µM (inactive)
GI50 [48]: > 100 µM (inactive)
GI50 [49]: > 100 µM (inactive)
GI50 [50]: > 100 µM (inactive)

SC1=NC2=C(CSC/C2=C\c2ccc(Cl)cc2)C(c2ccc(Cl)cc2)N1 (stereo unspecified)
GI50 [2]: 27.5 µM (inactive)
GI50 [3]: 26.5 µM (inactive)
GI50 [51]: > 100 µM (inactive)
GI50 [5]: 33.5 µM (inactive)
GI50 [52]: 31.3 µM (inactive)
GI50 [6]: 27 µM (inactive)
GI50 [7]: 42.8 µM (inactive)
GI50 [8]: 51.8 µM (inactive)
GI50 [10]: 55.8 µM (inactive)
GI50 [12]: 34 µM
GI50 [13]: 33.2 µM (inactive)
GI50 [14]: 42.2 µM (inactive)
GI50 [15]: 45.3 µM (inactive)
GI50 [16]: 28.6 µM (inactive)
GI50 [17]: 24.7 µM (inactive)
GI50 [18]: 32.2 µM (inactive)
GI50 [19]: 34.4 µM (inactive)
GI50 [20]: 41.2 µM (inactive)
GI50 [21]: 19.1 µM (inactive)
GI50 [22]: 29.5 µM (inactive)
GI50 [23]: 39.4 µM (inactive)
GI50 [24]: 32.4 µM (inactive)
GI50 [26]: 75.7 µM (inactive)
GI50 [53]: 35.2 µM (inactive)
GI50 [27]: 30.8 µM (inactive)
GI50 [28]: 49 µM (inactive)
GI50 [29]: 38.1 µM (inactive)
GI50 [30]: 25.4 µM (inactive)
GI50 [54]: 26.4 µM (inactive)
GI50 [55]: 34.2 µM (inactive)
GI50 [32]: 37 µM (inactive)
GI50 [33]: 40 µM (inactive)
GI50 [34]: 17.3 µM (inactive)
GI50 [35]: 24.7 µM (inactive)
GI50 [36]: 72.4 µM (inactive)
GI50 [56]: 42.5 µM (inactive)
GI50 [37]: 28.6 µM (inactive)
GI50 [38]: 29.6 µM (inactive)
GI50 [39]: 31.4 µM (inactive)
GI50 [40]: 25.9 µM (inactive)
GI50 [57]: 44.3 µM (inactive)
GI50 [42]: 41.3 µM (inactive)
GI50 [43]: 36.6 µM (inactive)
GI50 [44]: 42.3 µM (inactive)
GI50 [45]: 36 µM (inactive)
GI50 [46]: 39.2 µM (inactive)
GI50 [47]: 38 µM (inactive)
GI50 [48]: 31.1 µM (inactive)
GI50 [49]: 46.9 µM (inactive)
GI50 [58]: 36.8 µM (inactive)
GI50 [50]: 32 µM (inactive)
